Measurements: patent US11407760B2, “Dioxinoquinoline compounds, preparation method and uses thereof” (BEIJING SCITECH-MQ PHARMACEUTICALS LIMITED, priority 2018, dated 2022)

How the values were obtained:
MHCC97H cells = test: Inhibitory activity on the proliferation of MHCC97H cells (CCK-8); assay type: cell-based; conditions: Homo sapiens, MHCC97H cell proliferation, 72 hours of incubation
Method: Biological Example 3. Assay of the Inhibitory Activity of Small Molecular Compounds on the Proliferation of MHCC97H Cells
The specific steps of the assay are as follows:
1. Dilution of compounds: a total of 9 concentrations were obtained using a 3-fold gradient dilution from the highest concentration of 5000 nM (the maximum final concentration of the drug used in this assay was 5000 nM, and the minimum final concentration was 0.76 nM).
2. MHCC97H cells were collected, then transferred to a 15 mL centrifuge tube, and centrifuged at 1000 rpm for 5 minutes.
3. The supernatant was discarded, and the complete medium was added and pipetted evenly, 10 μL of cell suspension was taken out and mixed evenly with 10 μL of 0.4% trypan blue, the counting was carried out with a cell counter, and the number and survival rate of cells were recorded;
4. The cell suspension was seeded into a 96-well plate at 5000 cells/80 μL per well;
5. 20 μL of the corresponding 5× compound solution diluted with the medium mentioned above was added to each well and mixed evenly;
6. After 72 hours of incubation, 10 μL of CCK-8 reagent was added to each well and incubated for another 2 hours (the reaction time can be adjusted according to the color depth);
7. The OD value was read at 450 nm on a multi-function plate reader.
8. Data processing: cell survival rate (%)=[(As−Ab)/(Ac−Ab)]*100%
As: OD value of assay well (medium containing cells, CCK-8, compound),
Ac: OD value of control well (medium containing cells, CCK-8),
Ab: OD value of blank well (CCK-8, medium without cell and compound),
The values were then imported into Graphpad Prism5 software for curve fitting, and IC50 was calculated.
Table 3 lists the assay results of the inhibitory activity of some compounds disclosed herein on the proliferation of the MHCC97H cell line.

VEGFR-2 kinase = VEGFR-2 kinase (Homo sapiens (Human), UniProt P35968); test: Assay of small molecular compounds for inhibiting the activity of VEGFR-2 kinase (LANCE TR-FRET); assay type: biochemical; conditions: VEGFR-2 tyrosine kinase, 60 min reaction
Method: Biological Example 2. Assay of Small Molecular Compounds for Inhibiting the Activity of VEGFR-2 Kinase
(§1) The assay is based on the LANCE TR-FRET technology of Perkin Elmer Inc., and the assay method is as follows:
(§2) 1. Dilution of compounds: a total of 11 concentrations were obtained using a 3-fold gradient dilution from the highest concentration of 2500 nM (the maximum final concentration of the drug used in this assay was 2500 nM, and the minimum final concentration was 0.042 nM).
(§3) 2. 2.5 μL of the gradient-diluted compounds were taken with a transfer pipette to a 384-well plate.
3. Addition of enzyme: 5 μL of 2× VEGFR-2 kinase solution (concentration was 0.5 nM) was taken with a transfer pipette to the corresponding reaction well of the 384-well plate, mixed well and pre-reacted at room temperature for 30 minutes.
4. 2.5 μL 4× Ultra ULight™-JAK-1 (Tyr1023) Peptide (concentration was 200 nM)/ATP (concentration was 40 μM) mixture was taken with a transfer pipette to the corresponding reaction well of the 384-well plate.
(§4) 5. Negative control: 2.5 μL/well 4× substrate/ATP mixture and 7.5 μL 1× Kinase Assay Buffer were added to the wells of the 384-well plate.
6. Positive control: 2.5 μL/well 4× substrate/ATP mixture, 2.5 μL/well 1× Kinase Assay Buffer containing 16% DMSO, and 5 μL/well 2× VEGFR-2 kinase solution were added to the 384-well plate. The final concentration of DMSO in the reaction system was 4%.
(§5) 7. The mixture was mixed well and then centrifuged and reacted at room temperature in dark for 60 min.
(§6) 8. Termination of the enzymatic reaction: 5 μL of 4× stop solution was taken with a transfer pipette to the wells of the 384-well plate, mixed and then centrifuged, and reacted at room temperature for 5 min.
(§7) 9. Development of the reaction: 5 μL of 4× detection solution was taken with a transfer pipette to the wells of the 384-well plate for color development, and the mixture was mixed and then centrifuged and reacted at room temperature for 60 min.
(§8) 10. The 384-well plate was placed into the Envision plate reader and the signal was detected using the appropriate program.
11. Analysis and processing of the raw data:
The drug concentrations and the corresponding inhibition rates were input into GraphPad Prism5 for calculation, and the inhibition rate of the compounds were calculated as follows: inhibition rate (%)=(reading of positive well−reading of experimental well)/(reading of positive control well−reading of negative control well)×100%. Processing with GraphPad Prism5 software yielded the corresponding IC50 values (the concentration of the compound at which 50% of the highest inhibition of the enzyme is achieved).

c-MET kinase = c-MET kinase (Homo sapiens (Human), UniProt P08581); test: Assay of small molecular compounds for inhibiting the activity of c-MET kinase (LANCE TR-FRET); assay type: biochemical; conditions: c-MET tyrosine kinase, 60 min reaction
Method: Biological Example 1. Assay of Small Molecular Compounds for Inhibiting the Activity of c-MET Kinase
as §1, §2, §3
3. Addition of enzyme: 5 μL of 2× c-MET kinase solution (concentration was 2 nM) was taken with a transfer pipette to the corresponding reaction well of the 384-well plate, mixed well and pre-reacted at room temperature for 5 minutes.
4. 2.5 μL 4× Ultra ULight™-JAK-1 (Tyr1023) Peptide (concentration was 400 nM)/ATP (concentration was 40 μM) mixture was taken with a transfer pipette to the corresponding reaction well of the 384-well plate.
as §4
6. Positive control: 2.5 μL/well 4× substrate/ATP mixture, 2.5 μL/well 1× Kinase Assay Buffer containing 16% DMSO, and 5 µL/well 2× c-MET kinase solution were added to the 384-well plate. The final concentration of DMSO in the reaction system was 4%.
as §5, §6, §7, §8
11. […]

VEGFR-2 kinase, sequence (P35968 20-1356): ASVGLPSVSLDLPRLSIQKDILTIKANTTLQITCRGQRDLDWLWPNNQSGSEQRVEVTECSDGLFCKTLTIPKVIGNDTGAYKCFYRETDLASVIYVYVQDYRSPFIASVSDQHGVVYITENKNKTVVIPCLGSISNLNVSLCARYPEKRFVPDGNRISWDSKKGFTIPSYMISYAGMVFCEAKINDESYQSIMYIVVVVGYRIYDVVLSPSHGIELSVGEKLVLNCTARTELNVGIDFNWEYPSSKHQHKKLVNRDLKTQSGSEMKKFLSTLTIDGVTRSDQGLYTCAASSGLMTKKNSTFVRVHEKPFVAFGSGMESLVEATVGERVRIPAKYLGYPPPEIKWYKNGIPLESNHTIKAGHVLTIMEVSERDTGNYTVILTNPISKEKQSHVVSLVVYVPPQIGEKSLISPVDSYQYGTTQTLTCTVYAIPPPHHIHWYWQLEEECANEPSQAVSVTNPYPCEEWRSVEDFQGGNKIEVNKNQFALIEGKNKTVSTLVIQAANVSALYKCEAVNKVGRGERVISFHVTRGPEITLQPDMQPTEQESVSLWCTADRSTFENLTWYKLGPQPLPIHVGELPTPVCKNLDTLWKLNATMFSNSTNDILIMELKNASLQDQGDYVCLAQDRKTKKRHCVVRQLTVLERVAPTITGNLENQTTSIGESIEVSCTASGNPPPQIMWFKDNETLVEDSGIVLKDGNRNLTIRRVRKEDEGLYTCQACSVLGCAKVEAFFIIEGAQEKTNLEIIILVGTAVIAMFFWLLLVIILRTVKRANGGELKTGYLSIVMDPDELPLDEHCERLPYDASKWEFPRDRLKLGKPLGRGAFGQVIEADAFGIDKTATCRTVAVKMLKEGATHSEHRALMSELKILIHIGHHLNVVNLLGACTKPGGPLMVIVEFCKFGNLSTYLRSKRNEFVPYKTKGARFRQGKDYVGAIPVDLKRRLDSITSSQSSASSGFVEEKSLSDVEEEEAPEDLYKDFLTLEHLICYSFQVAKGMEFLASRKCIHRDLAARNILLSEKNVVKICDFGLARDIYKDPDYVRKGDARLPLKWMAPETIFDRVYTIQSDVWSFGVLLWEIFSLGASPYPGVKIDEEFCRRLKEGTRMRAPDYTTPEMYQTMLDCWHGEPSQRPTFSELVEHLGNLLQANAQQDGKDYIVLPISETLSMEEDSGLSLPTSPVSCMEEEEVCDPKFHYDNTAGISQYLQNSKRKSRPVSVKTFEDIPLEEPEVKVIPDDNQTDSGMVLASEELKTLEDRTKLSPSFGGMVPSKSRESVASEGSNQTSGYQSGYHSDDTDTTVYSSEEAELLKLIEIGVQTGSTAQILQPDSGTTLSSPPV
c-MET kinase, sequence (P08581 25-1390): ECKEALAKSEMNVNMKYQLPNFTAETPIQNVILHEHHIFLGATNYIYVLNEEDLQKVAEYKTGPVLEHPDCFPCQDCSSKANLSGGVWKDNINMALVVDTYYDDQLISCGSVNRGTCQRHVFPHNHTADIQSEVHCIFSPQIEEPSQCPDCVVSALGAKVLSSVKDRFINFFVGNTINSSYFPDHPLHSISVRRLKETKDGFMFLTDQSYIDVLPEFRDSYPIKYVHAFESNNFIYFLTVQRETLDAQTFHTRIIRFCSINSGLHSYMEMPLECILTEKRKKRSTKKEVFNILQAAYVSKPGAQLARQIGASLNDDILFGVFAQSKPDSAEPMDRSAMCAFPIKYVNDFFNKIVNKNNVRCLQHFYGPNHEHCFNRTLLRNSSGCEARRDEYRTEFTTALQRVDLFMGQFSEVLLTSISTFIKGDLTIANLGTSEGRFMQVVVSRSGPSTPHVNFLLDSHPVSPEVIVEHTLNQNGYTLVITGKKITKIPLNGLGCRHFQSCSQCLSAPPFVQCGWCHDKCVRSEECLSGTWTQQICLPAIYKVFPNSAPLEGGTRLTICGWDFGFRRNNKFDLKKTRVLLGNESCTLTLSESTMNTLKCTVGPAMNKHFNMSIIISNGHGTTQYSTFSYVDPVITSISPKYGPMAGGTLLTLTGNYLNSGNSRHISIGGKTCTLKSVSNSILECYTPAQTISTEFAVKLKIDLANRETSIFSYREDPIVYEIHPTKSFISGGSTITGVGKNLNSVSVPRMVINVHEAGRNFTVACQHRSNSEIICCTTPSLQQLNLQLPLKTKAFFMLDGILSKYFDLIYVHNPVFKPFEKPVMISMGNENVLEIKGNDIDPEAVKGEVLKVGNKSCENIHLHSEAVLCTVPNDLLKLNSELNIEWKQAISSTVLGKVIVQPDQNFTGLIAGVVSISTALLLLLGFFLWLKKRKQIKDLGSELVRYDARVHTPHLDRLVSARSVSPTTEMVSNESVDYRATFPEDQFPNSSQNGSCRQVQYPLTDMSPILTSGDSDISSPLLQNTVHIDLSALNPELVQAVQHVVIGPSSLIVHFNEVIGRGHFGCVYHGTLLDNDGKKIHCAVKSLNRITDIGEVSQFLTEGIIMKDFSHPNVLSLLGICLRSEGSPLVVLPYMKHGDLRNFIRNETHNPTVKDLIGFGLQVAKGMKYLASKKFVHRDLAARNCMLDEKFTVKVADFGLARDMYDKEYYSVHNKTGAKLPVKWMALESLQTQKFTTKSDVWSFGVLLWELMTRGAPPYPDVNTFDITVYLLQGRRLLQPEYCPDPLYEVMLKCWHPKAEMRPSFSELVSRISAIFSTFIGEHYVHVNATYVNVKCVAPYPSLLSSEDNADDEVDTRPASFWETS

Compound | IC50 (VEGFR-2 kinase) [nM] | IC50 (c-MET kinase) [nM] | IC50 (MHCC97H cells) [nM]
O=C(Nc1ccc(F)cc1)C1(C(=O)Nc2ccc(Oc3ccnc4cc(OCCCN5CCOCC5)c5c(c34)OCCO5)cc2Cl)CC1 [Example 36, N-(2-chloro-4-((5-(3-morpholinopropoxy)-2,3-dihydro-[1,4]dioxino[2,3-f]quinolin-10-yl)oxy)phenyl)-N-(4-fluorophenyl)cyclopropan-1,1-dicarboxamide] | 50 to 500 | – | < 50
O=C(Nc1ccc(F)cc1)C1(C(=O)Nc2ccc(Oc3ccnc4cc(OC5CCOCC5)c5c(c34)OCCO5)c(F)c2)CC1 [Example 18, N-(3-fluoro-4-((5-((tetrahydropyran-4-yl)oxy)-2,3-dihydro-[1,4]dioxino[2,3-f]quinolin-10-yl)oxy)phenyl)-N-(4-fluorophenyl)cyclopropan-1,1-dicarboxamide] | 50 to 500 | – | –
COc1cc2nccc(Oc3cc(Cl)c(NC(=O)C4(C(=O)Nc5ccc(F)cc5)CC4)cc3F)c2c2c1OCCO2 [Example 35, N-(2-chloro-5-fluoro-4-((5-methoxy-2,3-dihydro-[1,4]dioxino[2,3-f]quinolin-10-yl)oxy)phenyl)-N-(4-fluorophenyl)cyclopropan-1,1-dicarboxamide] | – | – | < 50
CC1(O)CCN(CCCOc2cc3nccc(Oc4ccc(NC(=O)C5(C(=O)Nc6ccc(F)cc6)CC5)cc4F)c3c3c2OCCO3)CC1 [Example 22, N-(3-fluoro-4-((5-(3-(4-hydroxy-4-methylpiperidin-1-yl)propoxy)-2,3-dihydro-[1,4]dioxino[2,3-f]quinolin-10-yl)oxy)phenyl)-N-(4-fluorophenyl)cyclopropan-1,1-dicarboxamide] | – | – | < 50
CC1(C)CCN(CCCOc2cc3nccc(Oc4ccc(NC(=O)C5(C(=O)Nc6ccc(F)cc6)CC5)cc4F)c3c3c2OCCO3)CC1 [Example 29, N-(3-fluoro-4-((5-(3-(4,4-dimethylpiperidin-1-yl)propoxy)-2,3-dihydro-[1,4]dioxino[2,3-f]quinolin-10-yl)oxy)phenyl)-N-(4-fluorophenyl)cyclopropan-1,1-dicarboxamide] | – | – | < 50

More lines, main results first:

IC50 (VEGFR-2 kinase) [nM] | IC50 (c-MET kinase) [nM] | Compound | IC50 (MHCC97H cells) [nM]
50 to 500 | – | N#CCOc1cc2nccc(Oc3ccc(NC(=O)C4(C(=O)Nc5ccc(F)cc5)CC4)cc3F)c2c2c1OCCO2 [Example 20, N-(4-((5-(cyanomethoxy)-2,3-dihydro-[1,4]dioxino[2,3-f]quinolin-10-yl)oxy)-3-fluorophenyl)-N-(4-fluorophenyl)cyclopropan-1,1-dicarboxamide] | < 50
≤ 50 | ≤ 50 | CC(=O)N1CCN(CCCOc2cc3nccc(Oc4ccc(NC(=O)C5(C(=O)Nc6ccc(F)cc6)CC5)cc4F)c3c3c2OCCO3)CC1 [Example 19] | < 50
– | 50 to 500 | O=C(Nc1ccc(F)cc1)C1(C(=O)Nc2ccc(Oc3ccnc4cc(OCC5CC5)c5c(c34)OCCO5)c(F)c2)CC1 [Example 11, N-(4-((5-(cyclopropylmethoxy)-2,3-dihydro-[1,4]dioxino[2,3-f]quinolin-10-yl)oxy)-3-fluorophenyl)-N-(4-fluorophenyl)cyclopropan-1,1-dicarboxamide] | –
– | 50 to 500 | CC(C)COc1cc2nccc(Oc3ccc(NC(=O)C4(C(=O)Nc5ccc(F)cc5)CC4)cc3F)c2c2c1OCCO2 [Example 12, N-(4-((5-(isobutyloxy)-2,3-dihydro-[1,4]dioxino[2,3-f]quinolin-10-yl)oxy)-3-fluorophenyl)-N-(4-fluorophenyl)cyclopropan-1,1-dicarboxamide] | –
